Test results from BindingDB's records for doi:10.1074/jbc.M113.479303 (Wageningen University, 2013).

What was measured:
Experiment in all cases: Substrate Binding Assay
Details in all cases: pH 8
[1] = biological target: T1, Probable salicylate monooxygenase (Rhodococcus jostii (strain RHA1), UniProt Q0SFK6)
T1 sequence (Q0SFK6 whole entry): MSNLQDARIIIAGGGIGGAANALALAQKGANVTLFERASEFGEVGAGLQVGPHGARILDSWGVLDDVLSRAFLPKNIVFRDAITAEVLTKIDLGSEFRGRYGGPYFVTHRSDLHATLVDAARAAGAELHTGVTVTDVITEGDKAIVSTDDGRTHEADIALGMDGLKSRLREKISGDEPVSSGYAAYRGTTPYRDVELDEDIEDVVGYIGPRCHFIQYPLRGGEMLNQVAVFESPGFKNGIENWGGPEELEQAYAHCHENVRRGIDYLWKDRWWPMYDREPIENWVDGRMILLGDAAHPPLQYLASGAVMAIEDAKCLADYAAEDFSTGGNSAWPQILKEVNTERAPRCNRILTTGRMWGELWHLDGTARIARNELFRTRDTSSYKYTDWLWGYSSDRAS
Procedure: (§1) The interaction of 3HB6H (25 uM) with substrate analogs was studied in 50 mM Tris-SO4 (pH 8.0). Dissociation constants (Kd) of enzyme-substrate complexes were determined from flavin absorption difference spectra essentially as described elsewhere [Montersino et al., Biochim. Biophys. Acta, 1824:433-442].

[2] = biological target: Probable salicylate monooxygenase [H213A] (Rhodococcus jostii (strain RHA1), UniProt Q0SFK6, H213A)
Procedure: as §1

[3] = biological target: Probable salicylate monooxygenase [Y105F] (Rhodococcus jostii (strain RHA1), UniProt Q0SFK6, Y105F)
Procedure: as §1

`O=C(O)c1cccc(O)c1` gave a Kd [1] of 48 µM, a Kd [2] of 61 µM and a Kd [3] of 644 µM.
